Read-outs that look alike come from different tables or passages of the source.
Legend:
[1] = Experimental: During the period of observation, vital signs (blood pressure and pulse) and symptoms were continuously recorded. The protocol was such that if the blood pressure dropped by more than 20 mm Hg systolic or diastolic or the pulse increased by more than 30 beats per minute for 2 minutes, intravenous saline was to be administered and the study terminated.
gastroduodenal motility = conditions: reduction in gastroduodenal motility, dose-dependent; cited from earlier work
[2] = in vivo; cited from earlier work
[3] = system: contractions in the antrum; conditions: doses as high as 2 mg; cited from earlier work
antroduodenal activity = conditions: 1 mg i.v. followed by 2 mg IV over 2 hours; cited from earlier work
[4] = dose dependent side effects; cited from earlier work
opossum duodenum = conditions: cited from earlier work
[5] = first patient, initial dose of 5 ng VIP per kg

With CC[C@H](C)[C@H](NC(=O)[C@H](CO)NC(=O)[C@H](CC(N)=O)NC(=O)[C@H](CC(C)C)NC(=O)[C@H](Cc1ccc(O)cc1)NC(=O)[C@H](CCCCN)NC(=O)[C@H](CCCCN)NC(=O)[C@@H](NC(=O)[C@H](C)NC(=O)[C@H](CCSC)NC(=O)[C@H](CCC(N)=O)NC(=O)[C@H](CCCCN)NC(=O)[C@H](CCCN=C(N)N)NC(=O)[C@H](CC(C)C)NC(=O)[C@H](CCCN=C(N)N)NC(=O)[C@@H](NC(=O)[C@H](Cc1ccc(O)cc1)NC(=O)[C@H](CC(N)=O)NC(=O)[C@H](CC(=O)O)NC(=O)[C@@H](NC(=O)[C@H](Cc1ccccc1)NC(=O)[C@@H](NC(=O)[C@H](C)NC(=O)[C@H](CC(=O)O)NC(=O)[C@H](CO)NC(=O)[C@@H](N)Cc1c[nH]cn1)C(C)C)[C@@H](C)O)[C@@H](C)O)C(C)C)C(=O)N[C@@H](CC(C)C)C(=O)N[C@@H](CC(N)=O)C(N)=O [VIP, vasoactive intestinal peptide] the “effects on blood pressure and pulse” value ([1]; first patient, higher dose level (20 ng/kg)) was “not seen”, the pulse [1, 5] was “increase” and the systolic pressure [1, 5] was “slight decrease”. For the same compound, the blood pressure ([1]; second patient, 5 and 20 ng/kg of bodyweight) was “no significant effect”, the “blood pressure or pulse” value ([1]; second patient, any of the dosages tested) was “no significant change” and the “blood pressure or pulse” value ([1]; third patient, any dose of VIP administered) was “no significant change”. The “adverse reactions such as nausea or vomiting” value ([1]; three patients studied) was “None of the three patients studied experienced any adverse reactions”.
In the case of glucagon, the minimally effective dose (gastroduodenal motility) is listed as 0.5 mg, the colonoscopic evaluation [2] is listed as “does not facilitate” and the “contractions in the antrum” value [3] is listed as “does not reduce contractions”. The “cycle length and time between contractile activity in the duodenum” value (antroduodenal activity) was “significantly increased”, the mean pressure period (antroduodenal activity) was “decreased” and the “dose at which nausea and vomiting can appear” value [4] was 1 mg. For the same compound, the effect on duodenum (opossum duodenum) was “stimulated relaxation”.

From patent EP0631503B1, “USE OF VASOACTIVE INTESTINAL PEPTIDE (VIP) TO INDUCE TEMPORARY PARALYSIS OF THE GASTROINTESTINAL TRACT” (KORMAN, Louis Y., priority 1991, dated 2001)
